Data on eleven compounds can be found in patent US20240368163A1, “COMPOUNDS AND METHODS FOR MODULATING SPLICING” (REMIX THERAPEUTICS INC., priority 2021, published 2024).

Type in all cases: cell-based, human
Assay [1] relates to HTT. The experiment in a line: HiBiT protein abundance assay, HTT. Conditions: Homo sapiens, K562, 24 h, Table 13B, modified K562 cells. A digest of the protocol: (§1)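 Protein abundance measured by Nano-Glo HiBiT lytic luminescence after 24 h compound exposure of modified K562 lines, 10000 cells/well, top final dose 10 μM in 3-fold steps. Four-parameter fit of control-normalised response gives concentration reducing abundance to 50% of untreated.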
For orientation: HiBiT is a short tag that completes a luciferase, so light tracks the accessible tagged protein.

Assay [2] relates to HTT. Kind of assay: Splicing RT-qPCR assay, HTT mRNA canonical junction (CJ) and alternative junction (AJ). Conditions: Homo sapiens, gene panel, CJ qPCR, protocol of Example 142; read-out: HTT IC50 (decrease in CJ mRNA levels). A digest of the protocol:
(§2)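 Cells: A673 (DMEM/10% FBS) or K562 (IMDM/10% FBS). Dose: 11-pt 3-fold, top 10 uM final, ≤0.25% DMSO, 24 h, 37 °C. Readout: RT-qPCR of CJ/AJ exon junctions, ΔΔCt vs housekeeper and DMSO, RQ to % response.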
A general note: In qPCR the cycle at which signal appears reflects the starting amount.

Assay [3] deals with MYB. Kind of assay: HiBiT protein abundance assay, MYB. Conditions: Homo sapiens, K562, 24 h, Table 13B, modified K562 cells. The method, boiled down: as §1
Assay [4] concerns MYB. Kind of assay: Splicing RT-qPCR assay, MYB mRNA canonical junction (CJ) and alternative junction (AJ). Conditions: Homo sapiens, gene panel, CJ qPCR, protocol of Example 142; read-out: MYB IC50 (decrease in CJ mRNA levels). A digest of the protocol:
as §2

Assay [5] deals with Target C. The experiment in a line: HiBiT protein abundance assay, Target C. Conditions: Homo sapiens, K562, 24 h, Table 13B, modified K562 cells. The method, boiled down:
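Target protein levels in engineered HiBiT-tagged cells were read by lytic luminescence after 24 h compound exposure (10000 cells/well, 10 μM top final, 3-fold steps, ≤0.25% DMSO). Unmodified K562 served as baseline; four-parameter regression gave concentration reducing abundance to 50%.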

The subject of the next assay is SMN2. The experiment in a line: Splicing RT-qPCR panel, SMN2 canonical junction (CJ) mRNA. Conditions: Homo sapiens, gene panel, CJ qPCR, protocol of Example 142; read-out: SMN2 IC50 (decrease in CJ mRNA levels). The method, boiled down: as §2
In assay [6] the test system is Target C. The experiment in a line: Splicing RT-qPCR panel, Target C canonical junction (CJ) mRNA. Conditions: Homo sapiens, gene panel, CJ qPCR, protocol of Example 142; read-out: Target C IC50 (decrease in CJ mRNA levels). A digest of the protocol:
as §2

By IC50 is commonly meant the concentration that gives 50% inhibition. Turning to `COc1nc(-c2ccc(NC3CCNCC3)nn2)ccc1-c1cn[nH]c1` [Compound 924], the IC50 in the assay with HTT [1] is more than 10 µM; with HTT [2], 1 to 10 µM; with MYB [3], 1 to 10 µM; with MYB [4], more than 10 µM; with Target C [5] it was more than 10 µM; in the assay on SMN2 it was 0.1 to 1 µM. Further, the IC50 with Target C [6] was more than 10 µM.
Regarding `COc1nc(-c2ccc(NC3CCNCC3)nn2)ccc1-c1cnn(C)c1` [Compound 925], the IC50 lay within 1 to 10 µM with HTT [1]; 1 to 10 µM in the assay on HTT [2]; 1 to 10 µM in the assay with MYB [3]; 1 to 10 µM in the assay with MYB [4]; 1 to 10 µM in the assay with Target C [5]; 0.1 to 1 µM in the assay with SMN2. Also, the half-maximal inhibitory concentration (IC50) in the assay on Target C [6] is more than 10 µM.
For `COc1nc(-c2ccc(OC3CC(C)(C)NC(C)(C)C3)nn2)ccc1-c1cnn(C)n1` [Compound 926], the IC50 with HTT [1] was 0.1 to 1 µM; in the assay on HTT [2], 0.1 to 1 µM; in the assay with MYB [3], 1 to 10 µM; in the assay with MYB [4], 1 to 10 µM; in the assay on Target C [5], 0.1 to 1 µM; with SMN2, 0.1 to 1 µM. Moreover, in the assay with Target C [6], the IC50 lay within 1 to 10 µM.
For `COc1nc(-c2ccc(N(C)C3CC(C)(C)NC(C)(C)C3)nn2)ccc1-c1cnn(C)n1` [Compound 927], the IC50 was 0.1 to 1 µM in the assay on HTT [1]; 0.1 to 1 µM in the assay with HTT [2]; 0.1 to 1 µM in the assay on MYB [3]; 1 to 10 µM with MYB [4]; 0.1 to 1 µM in the assay with Target C [5]; 0.1 to 1 µM in the assay with SMN2. Further, the IC50 in the assay on Target C [6] is 1 to 10 µM.
As to `COc1nc(-c2ccc(N(C)[C@@H]3C[C@H]4CC[C@@H](C3)N4)nn2)cnc1-c1cn[nH]c1` [Compound 928], the IC50 in the assay with HTT [1] was 0.1 to 1 µM; with HTT [2] it was 0.1 to 1 µM; in the assay with MYB [3], 0.1 to 1 µM; in the assay on MYB [4], 0.1 to 1 µM; with Target C [5], 0.1 to 1 µM; with SMN2, less than 0.1 µM. The IC50 in the assay with Target C [6] was in the range of 0.1 to 1 µM.
Turning to `CCOc1nc(-c2ccc(N(C)[C@@H]3C[C@H]4CC[C@@H](C3)N4)nn2)ccc1-c1cn[nH]c1` [Compound 929], the IC50 with HTT [1], with HTT [2], in the assay with MYB [3], in the assay on MYB [4], in the assay with Target C [5] and with SMN2 was less than 0.1 µM throughout. For the same compound, in the assay with Target C [6], the IC50 is less than 0.1 µM.
Consider `COc1nc(-c2ccc(N(C)C3C[C@H]4CC[C@@H](C3)N4)nn2)ccc1-c1cnn(C)n1` (some centres unmarked) [Compound 932], for which the IC50 with HTT [1], in the assay with HTT [2], with MYB [3], in the assay with MYB [4], in the assay with Target C [5] and in the assay with SMN2 was 0.1 to 1 µM throughout. Besides, the IC50 with Target C [6] was in the range of 0.1 to 1 µM.
Regarding `COc1nc(-c2ccc(NC3CCNCC3)nn2)ccc1-c1cnn(C)n1` [Compound 933], the IC50 in the assay on HTT [1] is 1 to 10 µM; in the assay with HTT [2], more than 10 µM; in the assay on MYB [3] it was 1 to 10 µM; in the assay on MYB [4], more than 10 µM; in the assay on Target C [5], 1 to 10 µM; with SMN2, 1 to 10 µM. Besides, the IC50 in the assay on Target C [6] is more than 10 µM.
Consider `COc1nc(-c2ccc(OC3CC(C)(C)NC(C)(C)C3)nn2)ccc1-n1cccn1` [Compound 934], for which the IC50 in the assay with HTT [1] was 1 to 10 µM; in the assay on HTT [2], 1 to 10 µM; in the assay with MYB [3], 1 to 10 µM; in the assay on MYB [4], more than 10 µM; with Target C [5], 1 to 10 µM; in the assay on SMN2 it was 1 to 10 µM. In addition, the IC50 in the assay on Target C [6] is more than 10 µM.
Take `COc1nc(-c2ccc(N(C)C3CC(C)(C)NC(C)(C)C3)nn2)ccc1-n1cccn1` [Compound 935]: the half-inhibitory concentration (IC50) in the assay on HTT [1], with HTT [2], in the assay on MYB [3], with MYB [4], with Target C [5] and in the assay with SMN2 was 0.1 to 1 µM throughout. Besides, in the assay with Target C [6], the IC50 is 0.1 to 1 µM.
Turning to `CNc1nc(-c2ccc(N(C)[C@@H]3C[C@H]4CC[C@@H](C3)N4)nn2)ccc1-c1cn[nH]c1` [Compound 936], the IC50 in the assay on HTT [1] was 0.1 to 1 µM; in the assay on HTT [2] it was 0.1 to 1 µM; with MYB [3] it was 0.1 to 1 µM; in the assay on MYB [4] it was 1 to 10 µM; with Target C [5] it was 0.1 to 1 µM; with SMN2, less than 0.1 µM. Further, the IC50 in the assay with Target C [6] was in the range of 0.1 to 1 µM.
